Measured values from PMC9101684, “Hempseed (Cannabis sativa) Peptide H3 ([sequence]) Exerts Cholesterol-Lowering Effects in Human Hepatic Cell Line” (Nutrients, 2022).
Where no end group is shown, it is not given here.

Columns and labels:
HepG2 cells [1] = test: MTT assay, HepG2 cell viability; format: cell-based, human; settings: 48 h
Method: A total of 3 × 10^4 HepG2 cells/well were seeded in 96-well plates and treated with peptide H3 (0.00001, 0.0001, 0.001, 0.01, 0.1, and 1.0 mM) or vehicle (H2O) in complete growth media at 37 °C for 48 h under 5% CO2 atmosphere. MTT experiments were performed using the protocol reported in the Supplementary Materials.
HMGCoAR were provided in the HMGCoAR Assay Kit (Sigma Aldrich SRL, Milan, Italy). The experiments were carried out following the manufacturer instructions at 37 °C. […] Subsequently, the samples were mixed and the absorbance at 340 nm read by the microplate reader Synergy H1 […]
vehicle (H2O) in complete growth media for at 37 °C under 5% CO2 atmosphere for 48 h. […] After 5 min of slow shaking, the absorbance at 575 nm was read on the Synergy H1 fluorescence plate reader (Biotek, Bad Friedrichshall, Germany). […]
For the experiments, a total of 3 X 10 4 HepG2 cells/well were seeded in 96-well plates. […] The reaction was stopped with 2 M H2SO4 and then the absorbance at 450 nm was measured using the microplate reader Synergy H1 (Winooski, VT, USA). After the read, cells were stained by adding 1 X Janus Green stain, incubating for 5 min at RT. […]
Afterward 100 µL 0.5 M HCl for well were added and incubated for 10 min. After 10 min shaking, the OD at 595 nm was measured using the microplate reader Synergy H1 (Winooski, VT, USA). […]

Caco-2 cells = settings: differentiated Caco-2; cited from earlier work
Method: CVD is a multifactorial pathology in which oxidative and inflammatory status as well as hypercholesterolemia are among the main risk factors. […] To achieve this goal, a deeper study was carried out for characterizing the potential effect of peptide H3 o ...

[2] = target: T1, HMGCoAR (catalytic domain) (Homo sapiens, UniProt P04035); test: HMGCoAR activity assay (NADPH oxidation, absorbance 340 nm); format: biochemical; settings: purified catalytic domain of HMGCoAR; H3 10-1000 μM; 37 °C; absorbance 340 nm at 0 and 10 min; three independent experiments in triplicate
T1 construct: HMGCoAR (catalytic domain) (2 µL); purchased Sigma-Aldrich
T1 sequence (P04035 426-888 limits assumed): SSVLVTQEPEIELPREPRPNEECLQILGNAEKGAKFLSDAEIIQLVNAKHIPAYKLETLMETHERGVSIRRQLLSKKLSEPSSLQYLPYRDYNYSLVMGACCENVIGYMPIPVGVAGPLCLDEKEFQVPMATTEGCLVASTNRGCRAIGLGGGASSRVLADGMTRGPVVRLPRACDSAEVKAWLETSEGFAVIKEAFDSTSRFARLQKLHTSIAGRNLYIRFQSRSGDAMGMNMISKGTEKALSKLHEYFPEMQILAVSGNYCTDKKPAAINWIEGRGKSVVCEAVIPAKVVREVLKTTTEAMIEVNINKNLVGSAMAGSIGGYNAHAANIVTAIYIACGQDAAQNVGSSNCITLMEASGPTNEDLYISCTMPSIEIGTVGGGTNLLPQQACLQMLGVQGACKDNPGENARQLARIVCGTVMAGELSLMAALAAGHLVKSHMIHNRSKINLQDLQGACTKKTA

p-HMGCoAR = test: Western blot, p-HMGCoAR (serine 872) in HepG2 cells; format: cell-based, human; settings: pravastatin 1.0 µM, 24 h, versus control; p < 0.01; mean ± S.D., three independent experiments in duplicate
Method: (§1) Immunoblotting experiments were performed using an optimized protocol. Details are available in the Supplementary Materials. […]
(§2) 2.7. Western Blot Analysis
(§3) Immunoblotting experiments were performed using optimized protocol […]
(§4) µM of H3 for 24 h. After each treatment, the supernatants were collected and stored at -20 °C; cells were scraped in 40 µL ice-cold lysis buffer (RIPA buffer + inhibitor cocktail + 1:100 PMSF + 1:100 Na-orthovanadate + 1:1000 β-mercaptoethanol) and transferred in ice-cold microcentrifuge tubes. After centrifugation at 13,300 g for 15 min at 4 °C, the supernatants were recovered and transferred into new ice-cold tubes. […]
(§5) Cocktail) on ice for 20 min and then centrifuged 12000 rpm for 10 min at 4°C and the supernatant was collected (nucleus isolate). Total proteins were quantified […]
(§6) Sodium Dodecyl Sulfate-Polyacrylamide (SDS-PAGE) gel at 130 V for 45 min.
(§7) Subsequently, the gel was pre-equilibrated in H2O for 5 min at room temperature (RT) and transferred to a nitrocellulose membrane (Mini nitrocellulose Transfer Packs,) using a Trans-Blot Turbo at 1.3 A, 25 V for 7 min. Target proteins, on milk or BSA blocked membrane, were detected by primary antibodies as follows: anti-SREBP-2, anti-LDLR, anti-HMGCoAR, anti-PCSK9, anti HNF1-α, anti-p-HMGCoAR, anti-p-AMPK and anti-β-actin. […]

LDLR [3] = test: Western blot, total LDLR in HepG2 cells; format: cell-based, human; settings: pravastatin 1.0 µM, 24 h, versus control; p < 0.001; mean ± S.D., three independent experiments in duplicate
Method: as §1, §2, §3, §4, §5, §6, §7

AMPK = test: Western blot, p-AMPK (threonine 172) in HepG2 cells; format: cell-based, human; settings: pravastatin 1.0 µM, 24 h, versus control; p < 0.05; mean ± S.D., three independent experiments in duplicate
Method: as §1, §2, §3, §4, §5, §6, §7

HepG2 cells [4] = test: Fluorescent LDL uptake by HepG2 cells; format: cell-based, human; settings: pravastatin 1.0 µM, 24 h, then LDL-DyLight 550 for 2 h at 37 °C, fluorescence, versus control; p < 0.0001; mean ± S.D., three experiments in triplicate
Method: treatment, the culture medium was replaced with 50 µL/well LDL-DyLight™ 550 working solution (Cayman Chemical Company, Ann Arbor, MI, USA) prepared in DMEM without FBS and antibiotics. The cells were additionally incubated for 2 h at 37 °C and then the culture medium was aspirated and replaced with PBS (100 µL/well). The degree of LDL uptake was measured using the Synergy H1 fluorescent plate reader (Winooski, VT, USA) (excitation and […]

LDLR [5] = test: In-Cell Western (ICW), LDLR localized on cellular membranes of HepG2 cells; format: cell-based, human; settings: pravastatin 1.0 µM, 24 h, versus control, p < 0.0001, mean ± S.D., three experiments in triplicate
Method: For the experiments, a total of 3 × 10^4 HepG2 cells/well were seeded in 96-well plates. The following day, the cells were washed with PBS and then starved overnight (O/N) in DMEM without FBS nor antibiotics.
HMGCoAR were provided in the HMGCoAR Assay Kit (Sigma Aldrich SRL, Milan, Italy). The experiments were carried out following the manufacturer instructions at 37 °C. In particular, each reaction (200 µL) was prepared adding the reagents in the following order: 1 X assay buffer, a 10–1000 µM doses of H3 or vehicle (C), the NADPH (4 µL), the substrate solution (12 µL), and finally the HMGCoAR (catalytic domain) (2 µL). Subsequently, the samples were mixed and the absorbance at 340 nm read by the microplate reader Synergy H1
In-Cell Western (ICW) Assay
For the experiments, a total of 3 X 10 4 HepG2 cells/well were seeded in 96-well plates. The following day, cells were washed with PBS and then starved overnight (O/N) in DMEM without FBS and antibiotics.
Subsequently, they were fixed in 4% paraformaldehyde for 20 min at room temperature (RT). […] The reaction was stopped with 2 M H2SO4 and then the absorbance at 450 nm was measured using the microplate reader Synergy H1 (Winooski, VT, USA). After the read, cells were stained by adding 1 X Janus Green stain, incubating for 5 min at RT. […]

PCSK9 [6] = test: ELISA, mature PCSK9 secreted by HepG2 cells; format: cell-based, human
PCSK9 [7] = test: Western blot, intracellular PCSK9 in HepG2 cells; format: cell-based, human; settings: pravastatin 1.0 µM, 24 h, versus control; p < 0.0001; mean ± S.D., three experiments in duplicate
Method: as §1, §2, §3, §4, §5, §6, §7

SREBP-2 = test: Western blot, mature and precursor SREBP-2 in HepG2 cells; format: cell-based, human; settings: pravastatin 1.0 µM, 24 h, versus untreated
Method: as §1, §2, §3
µM of H3 for 24 h. After each treatment, the supernatants were collected and stored at -20 °C; cells were scraped in 40 µL ice-cold lysis buffer (RIPA buffer + inhibitor cocktail + 1:100 PMSF + 1:100 Na-orthovanadate + 1:1000 β-mercaptoethanol) and transferred in ice-cold microcentrifuge tubes. After centrifugation at 13,300 g for 15 min at 4 °C, the supernatants were recovered and transferred into new ice-cold tubes. For the mature SREBP-2 nuclear […]
for at 37 °C under 5% CO2 atmosphere for 24h. Therefore, cells were collected with PBS ice-cold and centrifuged 1500 rmp for 5 min at 4°C. The pellet was incubated with 20 µL of Nuclei Isolation Buffer A (10 mM HEPES pH 7.9, 1.5 mM MgCl2, 10 mM KCl, 0.2 mM EDTA, 0.1% β-mercaptoethanol, 0.5 mM PMSF, 0.1 % NP-40, one cOmplete™ Mini, EDTA-free Protease Inhibitor Cocktail) on ice for 10 min and then centrifuged 12000 rpm for 10 min at 4°C. Subsequently, the pellet was incubated with 20 µL of Nuclei Isolation Buffer B (20 mM HEPES […]
0.5 mM PMSF, 0.42 M NaCl, one cOmplete™ Mini, EDTA-free Protease Inhibitor Cocktail) on ice for 20 min and then centrifuged 12000 rpm for 10 min at 4°C and the supernatant was collected (nucleus isolate). Total proteins were quantified […]
as §7, with “anti-β-actin. Secondary antibodies conjugated with HRP and a chemiluminescent reagent were used to visualize target proteins and their signal was quantified using the Image Lab Software (Biorad, Hercules,” for “anti-β-actin.”

HNF1-α = test: Western blot, HNF1-α in HepG2 cells; format: cell-based, human; settings: pravastatin 1.0 µM, 24 h, versus control; p < 0.0001; mean ± S.D., three experiments in duplicate
Method: as §1, §2, §3, §4, §5, §6, §7

HMGCoAR [8] = test: Western blot, HMGCoAR protein in HepG2 cells; format: cell-based, human; settings: pravastatin 1.0 µM, 24 h, versus control; p < 0.01; mean ± S.D., three independent experiments in duplicate
Method: as §1, §2, §3, §4, §5, §6, §7

HMGCoAR [9] = tested on: HMGCoAR; design: method as in 5 sources, ref 24 = [24]; PMID 2513368; doi:10.1016/S0022-2275(20)38255-9; 24. Mosley S.T. Kalinowski S.S. Schafer B.L. Tanaka R.D. Tissue-selective acute effects of inhibitors of 3-hydroxy-3-methylglutaryl coenzyme A reductase on cholesterol biosynthesis in lens J. Lipid Re ||| ref 32 = [32]; PMID 25690031; doi:10.3390/ijms16024150; 32. Soares R.A.M. Mendonça S. De Castro L.Í.A. Menezes A.C.C.C.C. Arêas J.A.G. Major Peptides from Amaranth (Amaranthus cruentus) Protein Inhibit HMG-CoA Reductase Activity Int. J. Mol. Sci. 2015 16 4 ||| ref 33 = [33]; doi:10.1016/j.jff.2015.02.021; 33. Lammi C. Zanoni C. Arnoldi A. […], […], and LPYP, three peptides from soy glycinin, modulate cholesterol metabolism in HepG2 cells through the activation of the LDLR-SREBP2 pathway J. Fu ||| ref 34 = [34]; PMID 26310992; doi:10.1021/acs.jafc.5b03497; 34. Lammi C. Zanoni C. Arnoldi A. Vistoli G. Two Peptides from Soy β-Conglycinin Induce a Hypocholesterolemic Effect in HepG2 Cells by a Statin-Like Mechanism: Comparative in Vitro and in Silico Model ||| ref 11, 12 = [11]; PMID 29096438; doi:10.1021/acs.jafc.7b03590; 11. Aiello G. Lammi C. Boschin G. Zanoni C. Arnoldi A. Exploration of Potentially Bioactive Peptides Generated from the Enzymatic Hydrolysis of Hempseed Proteins J. Agric. Food Chem. 2017 65 10174 101 || [12]; PMID 28931275; doi:10.1021/acs.jafc.7b02742; 12. Zanoni C. Aiello G. Arnoldi A. Lammi C. Hempseed Peptides Exert Hypocholesterolemic Effects with a Statin-Like Mechanism J. Agric. Food Chem. 2017 65 8829 8838 10.1021/acs.jafc.7b02742 28931275; settings: read-out: IC50, HMGCoAR (literature value for pravastatin); cited from earlier work
Text: Th ... || CVD is a multifactorial pathology in which oxidative and inflammatory status as well as hypercholesterolemia are among the main risk factors.

| Molecule | reduced cell viability (HepG2 cells [1]; 1 mM H3, mean ± S.D. of three experiments in triplicate, Figure S1) | effect on HepG2 viability (HepG2 cells [1]; up to 100 µM, versus control cells, three experiments in triplicate) | intestinal trans-epithelial transport (Caco-2 cells) | IC50 [2] | phosphorylation level of HMGCoAR (serine 872) (p-HMGCoAR) | total LDLR protein level (LDLR [3]) | AMPK phosphorylation (threonine 172) (AMPK) | LDL uptake (HepG2 cells [4]) | LDLR protein level on cellular membrane (LDLR [5]) | release of PCSK9 (increase up to) (PCSK9 [6]) | PCSK9 protein level (increase up to) (PCSK9 [7]) | precursor SREBP-2 (125 KDa) protein level (SREBP-2; cytoplasmic fraction, p < 0.05, Figure S2) | mature nuclear SREBP-2 (65 KDa) protein level (SREBP-2; nuclear fraction, p < 0.0001, mean ± S.D., three independent experiments in duplicate) | total mature SREBP-2 (65 KDa) protein level (SREBP-2; total lysate, p < 0.001, mean ± S.D., three independent experiments in duplicate) | HNF1-α level (activation up to) (HNF1-α) | HMGCoAR protein level (HMGCoAR [8]) | IC50 (HMGCoAR [9]) |
| --- | --- | --- | --- | --- | --- | --- | --- | --- | --- | --- | --- | --- | --- | --- | --- | --- | --- |
| IGFLIIWV [H3] | 19.63 ± 0.59% | no effect on HepG2 viability was observed up to 100 µM | transported intact by differentiated Caco-2 | 59 µM | – | – | – | – | – | – | – | – | – | – | – | – | – |
| CC[C@H](C)C(=O)O[C@H]1C[C@H](O)C=C2C=C[C@H](C)[C@H](CC[C@@H](O)C[C@@H](O)CC(=O)O)[C@H]21 [pravastatin] | – | – | – | – | 143.5 ± 4.64% | 140.8 ± 15.35% | 122.7 ± 5.23% | 226.9 ± 11.05% | 127.3 ± 14.31% | 119.6 ± 1.18% | 118.8 ± 6.11% | 140.8 ± 9.0% | 152.3 ± 8.2% | 134.9 ± 17.3% | 116.9 ± 3.21% | 129.3 ± 9.33% | 0.47 µM |
